pEC50: −log10 of the molar value. Several values for one entry are separate records, joined by “and”; a condition that tells them apart may be missing. Identical values can stand only once. Like-named read-outs stand apart in the source and are kept apart here.
How the values were obtained:
expanded OPCs = assay: cells; details: for viability at 0.1 µM / viability at 1 µM / viability at 10 µM: Rattus norvegicus, 72 h
Outline: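 Toxicity screen: compounds added at 0.1, 1 and 10 µM to PDGF-AA-expanded OPCs in 96-well plates, 3-day incubation at 37 °C, 10% CO2, then alamarBlue 1:10 for 4 h with fluorescence readout. Results set screening doses of 10/2, 2/0.4 or 0.4/0.08 µM.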

[1] = system: acutely dissociated and purified rat OPCs; assay: Acute OL differentiation assay (MBP expression/cell, immunofluorescent image quantification); assay type: cell-based
Outline: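 This acute differentiation assay used purified rat OPCs from postnatal day 6–7 pups, seeded into PDL/laminin-coated 96-well plates in differentiation medium lacking PDGF and FGF. Compounds were applied in quadruplicate after a 1–2 h preincubation at 37 °C, 10 % CO2, with 0.1 % DMSO negative and 40 ng/ml T3 positive controls in eight wells. After fixation on DIV4, anti-MBP immunofluorescence images yielded MBP expression/cell.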

[2] = read-out: 0.1 µM (% DMSO), alamarBlue viability, NCC library compound at 0.1 µM, sheet "All Tox data"
[3] = read-out: 1 µM (% DMSO), alamarBlue viability, NCC library compound at 1 µM, sheet "All Tox data"
[4] = read-out: 10 µM (% DMSO), alamarBlue viability, NCC library compound at 10 µM, sheet "All Tox data"
[5] = Rattus norvegicus, 2 uM test compound, relative to quetiapine, sheet "All OLga data", read-out: OL differentiation, 2 uM (% Quet)
[6] = Rattus norvegicus, 10 uM test compound, relative to quetiapine, sheet "All OLga data", read-out: OL differentiation, 10 uM (% Quet)
[7] = Rattus norvegicus, test compound at 0.4 uM, NCC library screen, sheet "All OLga data", relative to quetiapine, read-out: 0.4 uM (% Quet)
[8] = Rattus norvegicus, test compound at 2 uM, NCC library screen, sheet "All OLga data", relative to quetiapine, read-out: 2 uM (% Quet)
[9] = alamarBlue viability of expanded OPCs, compound at 0.1 µM, relative to DMSO control
[10] = alamarBlue viability of expanded OPCs, compound at 1 µM, relative to DMSO control
[11] = alamarBlue viability of expanded OPCs, compound at 10 µM, relative to DMSO control
[12] = Rattus norvegicus, test compound at 10 uM, NCC library screen, sheet "All OLga data", relative to quetiapine, read-out: 10 uM (% Quet)
[13] = Rattus norvegicus, test compound at 2 uM, MBP expression relative to quetiapine, NCC library screen, sheet "All OLga data", read-out: 2 uM (% Quet)
[14] = Rattus norvegicus, test compound at 10 uM, MBP expression relative to quetiapine, NCC library screen, sheet "All OLga data", read-out: 10 uM (% Quet)
[15] = 2 uM test compound, relative to quetiapine, sheet "All OLga data"
[16] = read-out: 0.1 µM (% DMSO), alamarBlue viability of expanded OPCs, compound at 0.1 µM, sheet All Tox data
[17] = read-out: 1 µM (% DMSO), alamarBlue viability of expanded OPCs, compound at 1 µM, sheet All Tox data
[18] = read-out: 10 µM (% DMSO), alamarBlue viability of expanded OPCs, compound at 10 µM, sheet All Tox data

CN(C)CCOC(C)(c1ccccc1)c1ccccn1 (stereo not drawn) [Doxylamine]
viability at 0.1 µM (expanded OPCs; [2]): 96%
viability at 1 µM (expanded OPCs; [3]): 86.6%
viability at 10 µM (expanded OPCs; [4]): 75%
activation at 2 µM [1, 5]: -9.7%
activation at 10 µM [1, 6]: 0.7%

O=C(CCCN1CC=C(n2c(=O)[nH]c3ccccc32)CC1)c1ccc(F)cc1 [Droperidol]
viability at 0.1 µM (expanded OPCs; [2]): 90.8%
viability at 1 µM (expanded OPCs; [3]): 97.2%
viability at 10 µM (expanded OPCs; [4]): 71.6%
activation at 2 µM [1, 5]: 7.3%
activation at 10 µM [1, 6]: -13.2%

CS(=O)(=O)c1ccc(-c2cc(Br)sc2-c2ccc(F)cc2)cc1 [DuP 697]
viability at 0.1 µM (expanded OPCs; [2]): 89.6%
viability at 1 µM (expanded OPCs; [3]): 114%
viability at 10 µM (expanded OPCs; [4]): 10.7%
activation at 0.4 µM [1, 7]: -42.3%
activation at 2 µM [1, 8]: -109%

CNCC[C@H](Oc1cccc2ccccc12)c1cccs1 [Duloxetine]
0.1 µM (% DMSO) (expanded OPCs): 56.7 % DMSO and 82.6 % DMSO
1 µM (% DMSO) (expanded OPCs): 45.5 % DMSO
10 µM (% DMSO) (expanded OPCs): 12.6 % DMSO
viability at 1 µM (expanded OPCs; read-out: 1 µM (% DMSO)): 30.3%
viability at 10 µM (expanded OPCs; read-out: 10 µM (% DMSO)): 9.7%
activation at 0.08 µM ([1]; Rattus norvegicus, read-out: 0.08 uM (% Quet)): -5.1%
activation at 0.4 µM ([1]; Rattus norvegicus, read-out: 0.4 uM (% Quet)): -12.9%
activation at 0.08 µM ([1]; Rattus norvegicus, read-out: OL differentiation, 0.08 uM (% Quet)): 18.3%
activation at 0.4 µM ([1]; Rattus norvegicus, read-out: OL differentiation, 0.4 uM (% Quet)): -7.6%

O=c1c2ccccc2[se]n1-c1ccccc1 [Ebselen]
viability at 0.1 µM (expanded OPCs; [2]): 61.7%
viability at 1 µM (expanded OPCs; [3]): 30.7%
viability at 10 µM (expanded OPCs; [4]): 10.1%
activation at 0.08 µM ([1]; Rattus norvegicus, test compound at 0.08 uM, NCC library screen, sheet "All OLga data", relative to quetiapine, read-out: 0.08 uM (% Quet)): 131%
activation at 0.4 µM [1, 7]: -95.7%

Clc1ccc(COC(Cn2ccnc2)c2ccc(Cl)cc2Cl)cc1 (stereo not drawn) [Econazole]
0.1 µM (% DMSO) (expanded OPCs; [9]): 178.0 % DMSO
1 µM (% DMSO) (expanded OPCs; [10]): 195.6 % DMSO
10 µM (% DMSO) (expanded OPCs; [11]): 29.6 % DMSO
activation at 0.4 µM [1, 7]: 90%
activation at 2 µM [1, 8]: -178%

CC[N+](C)(C)c1cccc(O)c1 [Edrophonium]
viability at 0.1 µM (expanded OPCs; [2]): 93%
viability at 1 µM (expanded OPCs; [3]): 91%
viability at 10 µM (expanded OPCs; [4]): 100%
activation at 2 µM [1, 8]: 10.5%
activation at 10 µM [1, 12]: 10.8%

O=C1Nc2ccc(Cl)cc2[C@@](C#CC2CC2)(C(F)(F)F)O1 [Efavirenz]
viability at 0.1 µM (expanded OPCs; [2]): 90.4%
viability at 1 µM (expanded OPCs; [3]): 85.6%
viability at 10 µM (expanded OPCs; [4]): 16.8%
activation at 0.4 µM ([1]; Rattus norvegicus, 0.4 uM test compound, relative to quetiapine, sheet "All OLga data", read-out: OL differentiation, 0.4 uM (% Quet)): 3.8%
activation at 2 µM [1, 5]: 40.9%

CCOC(=O)[C@H](CCc1ccccc1)N[C@@H](C)C(=O)N1CCC[C@H]1C(=O)O [Enalapril]
0.1 µM (% DMSO) (expanded OPCs; [9]): 90.6 % DMSO
1 µM (% DMSO) (expanded OPCs; [10]): 90.6 % DMSO
10 µM (% DMSO) (expanded OPCs; [11]): 87.6 % DMSO
activation at 2 µM [1, 13]: 8.8%
activation at 10 µM [1, 14]: -8.9%

C[C@H](N[C@@H](CCc1ccccc1)C(=O)O)C(=O)N1CCC[C@H]1C(=O)O [Enalaprilat]
0.1 µM (% DMSO) (expanded OPCs; alamarBlue viability, NCC library compound at 0.1 µM, sheet "All Tox data"): 92.9 % DMSO
1 µM (% DMSO) (expanded OPCs; alamarBlue viability, NCC library compound at 1 µM, sheet "All Tox data"): 91.2 % DMSO
10 µM (% DMSO) (expanded OPCs; alamarBlue viability, NCC library compound at 10 µM, sheet "All Tox data"): 83.0 % DMSO
OL differentiation, 2 uM (% Quet) [1, 15]: -17.8 % Quet
OL differentiation, 10 uM (% Quet) ([1]; 10 uM test compound, relative to quetiapine, sheet "All OLga data"): -49.3 % Quet

CCN1CCN(c2cc3c(cc2F)c(=O)c(C(=O)O)cn3C2CC2)CC1 [Enrofloxacin]
viability at 0.1 µM (expanded OPCs; [2]): 88.5%
viability at 1 µM (expanded OPCs; [3]): 89%
viability at 10 µM (expanded OPCs; [4]): 79.9%
activation at 2 µM [1, 8]: -3.6%
activation at 10 µM [1, 12]: 13.5%

O=C(O[C@@H]1Cc2c(O)cc(O)cc2O[C@@H]1c1cc(O)c(O)c(O)c1)c1cc(O)c(O)c(O)c1 [Epigallocatechin gallate]
0.1 µM (% DMSO) (expanded OPCs; alamarBlue viability of expanded OPCs, compound at 0.1 µM, sheet All Tox data): 81.9 % DMSO
1 µM (% DMSO) (expanded OPCs; alamarBlue viability of expanded OPCs, compound at 1 µM, sheet All Tox data): 78.8 % DMSO
10 µM (% DMSO) (expanded OPCs; alamarBlue viability of expanded OPCs, compound at 10 µM, sheet All Tox data): 48.5 % DMSO
OL differentiation, 0.4 uM (% Quet) ([1]; 0.4 uM test compound, relative to quetiapine, sheet "All OLga data"): -15.9 % Quet
OL differentiation, 2 uM (% Quet) [1, 15]: 21.7 % Quet

CNC[C@H](O)c1ccc(O)c(O)c1 [Epinephrine]
0.1 µM (% DMSO) (expanded OPCs; [9]): 101.9 % DMSO
1 µM (% DMSO) (expanded OPCs; [10]): 92.7 % DMSO
10 µM (% DMSO) (expanded OPCs; [11]): 81.7 % DMSO
activation at 2 µM [1, 13]: -7.6%
activation at 10 µM [1, 14]: -15%

COc1cc(C)nc(-n2nc(C)cc2OC)n1 [Epirizole]
viability at 0.1 µM (expanded OPCs; [2]): 106%
viability at 1 µM (expanded OPCs; [3]): 110%
viability at 10 µM (expanded OPCs; [4]): 112%
activation at 2 µM [1, 8]: -9.9%
activation at 10 µM [1, 12]: -10.5%

CCOC(=O)CCC(=O)O[C@H]1[C@H](O[C@@H]2[C@@H](C)[C@H](O[C@H]3C[C@@](C)(OC)[C@@H](O)[C@H](C)O3)[C@@H](C)C(=O)O[C@H](CC)[C@@](C)(O)[C@H](O)[C@@H](C)C(=O)[C@H](C)C[C@@]2(C)O)O[C@H](C)C[C@@H]1N(C)C [Erythromycin Ethylsuccinate]
0.1 µM (% DMSO) (expanded OPCs; [9]): 95.4 % DMSO
1 µM (% DMSO) (expanded OPCs; [10]): 87.4 % DMSO
10 µM (% DMSO) (expanded OPCs; [11]): 75.9 % DMSO
activation at 2 µM [1, 8]: 1%
activation at 10 µM [1, 12]: 8.7%

CC[C@H]1OC(=O)[C@H](C)[C@@H](O[C@H]2C[C@@](C)(OC)[C@@H](O)[C@H](C)O2)[C@H](C)[C@@H](O[C@@H]2O[C@H](C)C[C@H](N(C)C)[C@H]2O)[C@](C)(O)C[C@@H](C)C(=O)[C@H](C)[C@@H](O)[C@]1(C)O [Erythromycin]
viability at 0.1 µM (expanded OPCs; [16]): 93.4%
viability at 1 µM (expanded OPCs; [17]): 89.6%
viability at 10 µM (expanded OPCs; [18]): 59.1%
activation at 2 µM [1, 5]: -40.1%
activation at 10 µM [1, 6]: -66.2%

COC(=O)CCc1ccc(OCC(O)CNC(C)C)cc1 (stereo not drawn) [Esmolol, reference compound]
viability at 0.1 µM (expanded OPCs; [16]): 93.8%
viability at 1 µM (expanded OPCs; [17]): 98.2%
viability at 10 µM (expanded OPCs; [18]): 113%
activation at 2 µM [1, 5]: 39.8%
activation at 10 µM [1, 6]: 29.6%
pEC50 ([1]; Rattus norvegicus, average EC50 for induction of OL differentiation from independent biological replicates, eight concentrations): 3.62
hit in OL differentiation assay, MRF-TMC ([1]; ● = confirmed hit in this paper's assay): ●

COc1ccc2nc([S@@+]([O-])Cc3ncc(C)c(OC)c3C)[nH]c2c1 [Esomeprazole]
viability at 0.1 µM (expanded OPCs; [16]): 85.5%
viability at 1 µM (expanded OPCs; [17]): 90%
viability at 10 µM (expanded OPCs; [18]): 95.3%
activation at 2 µM [1, 5]: 12.7%
activation at 10 µM [1, 6]: -23.8%

CCCCC(=O)O[C@H]1CC[C@H]2[C@@H]3CCc4cc(O)ccc4[C@H]3CC[C@]12C [Estradiol valerate]
viability at 0.1 µM (expanded OPCs; [2]): 93.2%
viability at 1 µM (expanded OPCs; [3]): 93.5%
viability at 10 µM (expanded OPCs; [4]): 9.6%
activation at 0.4 µM [1, 7]: -65.1%

C[C@]12CC[C@@H]3c4ccc(O)cc4CC[C@H]3[C@@H]1CC[C@@H]2O [Estradiol]
viability at 0.1 µM (expanded OPCs; [16]): 81.2%
viability at 1 µM (expanded OPCs; [17]): 75.5%
viability at 10 µM (expanded OPCs; [18]): 64.6%
activation at 2 µM [1, 5]: 15.2%
activation at 10 µM [1, 6]: 32.1%
